From patent US20070142480A1, “Alleviation of pain in osteoarthritis by means of intra-articular implantation of perfluorodecalin” (priority 2005, published 2007)

Tests used:
[1] = cited from earlier work
[2] = system: patients with symptomatic knee OA; experiment: single group, open-label study of weekly intra-articular injections in outpatients with symptomatic knee OA; assay type: in vivo, human; settings: for WOMAC score: baseline 5±2, p<0.001
Procedure: The efficacy of treatment was determined by a validated clinical test method and side effects recorded. This was a single group, open-label study, including outpatients of both sexes, aged between 18 and 85 years, with symptomatic knee OA. All patients (25) underwent weekly intra-articular injections of perfluorodecalin for 5 consecutive weeks and were followed-up for 10 additional weeks. The safety and tolerability profile (primary end-point) was assessed by adverse event reporting. The secondary endpoint was efficacy evaluated by changes in the Western Ontario and McMaster Universities (WOMAC) score vs. baseline. Patient and physician satisfaction were also recorded.

[3] = cited from earlier work; remark: listed apart in the source

## FC1(F)C(F)(F)C(F)(F)C2(F)C(F)(F)C(F)(F)C(F)(F)C(F)(F)C2(F)C1(F)F (centres unmarked) [Perfluorodecalin]
[1]
  solubility in water and in traditional organic solvents: insoluble
[2]; 25 patients, 5 weekly intra-articular injections, 10 additional weeks follow-up
  serious treatment-related adverse events: no serious treatment-related adverse events were reported
[2]; 25 patients, weekly intra-articular injections for 5 consecutive weeks
  most frequent adverse event: pain at the injection site: 10 % of the injections
[2]; after intra-articular injection
  duration of relief of pain, on average: one week
[2]; based on sustained improvements in WOMAC score and subscores
  carry-over effect after the last injection: at least 3 weeks
[2]; end of the injection series, week 6
  WOMAC score: 2±1.5
[2]; from week 4
  WOMAC subscore 'pain': significantly reduced
[2]; from week 6
  WOMAC subscore 'physical function': significantly reduced
  WOMAC subscore 'stiffness': significantly reduced
[2]; intra-articular, adverse event reporting
  safety and tolerability profile: generally well tolerated
[2]; within the first 2 weeks of treatment
  WOMAC score: 3±2
[3]; 37° C.
  Vapor pressure at 37° C.: 14 mm Hg
[3]
  CO2 solubility: 1400 mL/L
  O2 solubility: 490 mL/L
